This note sets out measurements from US20130072506A1, “6,8-DISUBSTITUTED PURINE COMPOSITIONS” (priority 2011, published 2013).

The test system of data set [1] is Amaranthus caudatus cotyledon/hypocotyl explants. Put plainly: Amaranthus bioassay (betacyanin content). Type of data set: in vivo, Amaranthus caudatus var. atropurpurea. As to the method: Testing of Novel Compounds in Amaranthus bioassay. Standard Amaranthus bioassay was performed with several modifications. The seeds of Amaranthus caudatus var. atropurpurea were surface-sterilized in 10% N-chlorobenzene sulfonamide (w/v) for 10 min and washed 5 times in deionized water. They were placed in 14 cm Petri dishes containing paper tissues saturated with deionized water. After 72 hours of cultivation at 25° C. in darkness, the roots of the seedlings were cut off. The explants, consisting of two cotyledons and hypocotyls, were placed in 5 cm Petri dishes on two layers of filter paper soaked in 1 ml of incubation medium containing 10 μmol Na2HPO4—KH2PO4, pH 6.8, 5 μmol tyrosine and the cytokinin to be tested. There were 20 explants per dish. The procedure was carried out under a green safe light in a darkroom. After a 48 hours of incubation at 25° C. in darkness, betacyanin was extracted by freezing the explants in 4 ml 3.33 μM acetic acid. The concentration of betacyanin was determined by comparing the absorbance at 537 nm and 620 nm as follows: DA=A537nm−A620nm. From the obtained data, the concentration with highest activity was selected for each compound tested. Relative activity of the compound at this concentration was calculated (see Table 3 below). […] The values shown in Table 3 are means of five replicates and the entire test was repeated twice.
The cytokinins to be tested were dissolved in dimethylsulfoxide (DMSO) and the solution brought up to 10^−3 M with distilled water.

Data set [2] concerns human skin fibroblast line ASF-2. Put plainly: Short-term growth of human skin fibroblasts. Conditions: for cellular growth: 200 to 500 μM. Type of data set: cell-based. As to the method:
Experimental Procedures. A stock solution of 4 mM for 6-furfurylamino-8-aminopurine and 8 mM for other compounds were prepared by dissolving about […] per ml 1N HCl, followed by its appropriate dilution by the addition of Hank's buffer. The stock solution was filter sterilized, stored at 4° C., and was used for experiments by dilution it in the cell culture medium as required.
(§1) All cell culture experiments were performed on early and mid passage cultures (about 20 to 40% lifespan completed) of normal human skin fibroblast line, designated ASF-2. In order to check the effects of test compounds on senescent cells, late passage cells with more than 90% lifespan completed were used. ASF-2 cell line was established from a mammary skin biopsy obtained from a young, non-smoking and healthy […] at the time of breast reduction operation. Normal culture conditions of medium (DMEM) containing antibiotics, 10% foetal calf serum, and incubation at 37° C. with 95% humidity were used. The effects of the test compounds were determined using the following procedures.
Growth characteristics. Short-term growth experiments were performed using 24-well tissue culture plates (growth area 1.9 cm^2). Freshly prepared cell suspensions from mass cultures of ASF-2 cells maintained in our labs were used. About 10,000 cells were seeded into 6 sets of 24-well plates. The cells were allowed to attach and stabilize for 24 hr in normal culture medium to achieve various final concentrations (range 40 to 500 μM). Culture medium was changed with the addition of test chemicals twice a week. The numbers of cells were counted after different days of treatment in 2 wells from each concentration of the test chemical, by following the normal method of cell trypsinization and counting using a Coultercounter. The third well in each category was fixed by cold methanol and stained with Giemsa stain for permanent record and for photography. The experiment was carried on for until the cultures became fully confluent and no further growth was possible.

A further data set has as its system proteasome. Put plainly: Proteasomal activity (chymotrypsin-like) in cell extracts. Type of data set: cell-based, human. The following applies: 40 μM-200 μM. As to the method: as §1
Proteasomal activity. Chymotrypsin-like activity in cell extracts prepared from treated and untreated cells was determined by in vitro degradation of oligopeptides by the proteasome.

Data set [3] concerns human skin fibroblast line ASF-2. In words: Actin staining (cytoskeletal organization). The following applies: young cells, after 3 days, treated vs untreated. Type of data set: cell-based. The procedure:
as §1
Actin staining. The pattern of cytoskeletal actin staining was studied by staining the cells with florescent ligand FITC-labelled Phalloidin, using a florescence microscope.

In data set [4] the test system is Salmonella typhimurium histidien auxotrophs TA98 and TA100. In words: Ames test. It is filed as cell-based. Conditions: 2.5-5000 μg/plate, presence and absence of Aroclor-induced rat liver S9. As to the method: Ames Test. A number of tests related to the safety of these inventive compounds have been carried out using conventionally accepted protocols and procedures. Tests were carried out using DMSO as solvent and dose levels of 8-amino-6-furfurylaminopurine at 2.5, 5.0, 15, 50, 500, 1500, and 5000 μg/plate based upon standard protocol and procedures (Ames et al., Mutation Research, 31, 347-364 (1975); Maron et al., Mutation Research, 113, 173-215 (1983)).
(In the Ames test, an excess of revertant colonies over the control signals mutagenicity.)

For the next data set, the system named is SKH-1 hairless mice. Put plainly: Hairless mouse assay: skin histology and skin compartment measurements. Type of data set: in vivo. Conditions: H&E stained biopsies, after 3 weeks of treatment. The source says: Experimental Design. 48 female SKH-1 hairless mice (5 weeks old, 20-25 grams, Charles River Laboratories, Wilmington, Mass.) are individually housed in filter-top cages, and acclimated for 5-7 days after delivery. The mice are divided into 8 treatment groups (n=6), including two different control groups (untreated control, vehicle control) and a therapeutic control (tretinoin 0.05% Renova™ cream). Cage cards are marked to indicate treatment groups 1-8. Water and mouse chow are provided ad libitum.
Topical Treatments. Beginning on Treatment Day 1, test products are applied topically each morning (Monday through Friday) after erythema evaluations for 3 weeks. Using a positive displacement pipette, 20 mg of each agent is applied to a 2 cm×2 cm area of the center midline of the back. The material was spread across the treatment area with the pipette tip.
Skin Histology. Skin biopsies are taken of each treatment site and untreated control skin. Biopsies are fixed in 4% neutral buffered formalin, embedded in paraffin, and stained with hematoxylin and eosin. The stained skin sections are examined to determine the effects of the treatment on epidermal, dermal, and stratum corneum histology. Biopsies are also microscopically examined for inflammatory cells.
Skin Compartment Measurements. The H&E stained biopsy slides were imaged using a trinocular Olympus BH-2 microscope fitted with a Microfire 2.1×3 Digital Camera. 100× images were digitized and stored on CD using MS Pictureframe and Microfire Software. All compartment images were measured using a calibrated micrometer. An average of three measurements of each compartment for two slide images per biopsy was obtained and tabulated, and means and standard deviations were calculated.

For the compound `Nc1nc2c(NCc3ccco3)ncnc2[nH]1` [Compound 82, 6-furfurylamino-8-aminopurine], the “Activity (%)” value in data set [1] (at concentration with highest activity, activity of kinetin set at 100%) is listed as 147.45%. Further, in data set [1] (betacyanin content, 48 hours in darkness), the “Concentration with highest activity” value is on record as 10^−4 mol/l. Further, in data set [2] (80 μM vs untreated), the Cell growth result was “similar”. Also, the cellular growth result in data set [2] is on record as “significantly inhibited”; in data set [2] (after 9 days), “almost a total inhibition”. In the data set on proteasome, the “improvement in the proteasomal activity” value is reported as 5-10%. In the data set on proteasome (compared to untreated), the “inhibition of chymotrypsin-like proteasomal activity” value is “no inhibition”. Moreover, in data set [3], the actin staining pattern result is recorded as “no obvious differences”. Besides, the mutagenic responses result in data set [4] was “no positive mutagenic responses”. For the same compound, in the data set on SKH-1 hairless mice, the skin compartment thickness result is “least effect on skin thickness”.
